Reference: patent publication US8716285B2, “N-hydroxy-benzamids for the treatment of cancer” (Hoffmann-La Roche Inc., priority 2010, dated 2014)
pEC50, pIC50: −log10 of the molar value.

How the values were obtained:
[1] = test system: p21 promoter-luciferase construct; assay: p21 reporter gene induction in HeLa cells transfected with p21 promoter-luciferase construct; type: cell-based; details: for p21 RP3: relative gene level of p21 induced compared to MS275 at 3 μM; for p21 RP10: relative level of p21 induced compared to MS275 at 10 μM; for p21 RP30: relative level of p21 induced compared to MS275 at 30 μM
Protocol: As a surrogate for in-cell HDAC1/2/3 inhibition, p21 induction was used as a counterscreen to evaluate the selectivity of the compounds in the present invention toward HDAC6 or HDAC8.
The novel compounds of the present invention were tested for their ability to induce p21 gene expression using a reporter gene assay involving HeLa cells transfected with a p21 promoter-luciferase construct. The p21 promoter contained the Sp1/Sp3 binding site for HDAC but not the upstream p53 binding site. Briefly, the day before transfection, HeLa cells were seeded at 11,000 cells/well in a 96-well culture plate and incubated at 37° C. in 5% CO2 overnight. A transfection media was prepared prior to transfection according to the following procedure: (1) 5 μl serum-free DMEM, 0.15 μl Fugene 6 reagent, 40 ng p21-luc, 10 ng GFP were mixed gently and incubated at rt for 30 minutes; (2), then 98 μl DMEM (with 10% FBS, 1% penicillin and streptomycin) was added to the DNA: Fugene 6 reagent complex and mixed gently. For transfection, the medium was removed and replaced with 100 μl/well transfection media which was prepared according to the procedure above. After incubating the cells for 24 hours at 37° C. in 5% CO2, fresh media and test compounds were added to the wells and the cells further incubated for 15 hours at 37° C. in 5% CO2. Cells were lysed by adding 80 μl/well of a cell culture lysis reagent (Promega). […] 100 μl luciferase assay reagent (Promega) was then added to every 20 μl cell lysate for luminometer detection. […] Induction activity for specific representative compounds can be found in Table 3.

HDAC6 = HDAC6 (Homo sapiens (Human), UniProt Q9UBN7); assay: Tubulin acetylation cytoblot assay (A549 cells); type: cell-based; details: 17-18 h, concentration for 50% induction of acetylated tubulin, read-out: Tub-ac EC50
Sequence of HDAC6 (Q9UBN7 whole entry): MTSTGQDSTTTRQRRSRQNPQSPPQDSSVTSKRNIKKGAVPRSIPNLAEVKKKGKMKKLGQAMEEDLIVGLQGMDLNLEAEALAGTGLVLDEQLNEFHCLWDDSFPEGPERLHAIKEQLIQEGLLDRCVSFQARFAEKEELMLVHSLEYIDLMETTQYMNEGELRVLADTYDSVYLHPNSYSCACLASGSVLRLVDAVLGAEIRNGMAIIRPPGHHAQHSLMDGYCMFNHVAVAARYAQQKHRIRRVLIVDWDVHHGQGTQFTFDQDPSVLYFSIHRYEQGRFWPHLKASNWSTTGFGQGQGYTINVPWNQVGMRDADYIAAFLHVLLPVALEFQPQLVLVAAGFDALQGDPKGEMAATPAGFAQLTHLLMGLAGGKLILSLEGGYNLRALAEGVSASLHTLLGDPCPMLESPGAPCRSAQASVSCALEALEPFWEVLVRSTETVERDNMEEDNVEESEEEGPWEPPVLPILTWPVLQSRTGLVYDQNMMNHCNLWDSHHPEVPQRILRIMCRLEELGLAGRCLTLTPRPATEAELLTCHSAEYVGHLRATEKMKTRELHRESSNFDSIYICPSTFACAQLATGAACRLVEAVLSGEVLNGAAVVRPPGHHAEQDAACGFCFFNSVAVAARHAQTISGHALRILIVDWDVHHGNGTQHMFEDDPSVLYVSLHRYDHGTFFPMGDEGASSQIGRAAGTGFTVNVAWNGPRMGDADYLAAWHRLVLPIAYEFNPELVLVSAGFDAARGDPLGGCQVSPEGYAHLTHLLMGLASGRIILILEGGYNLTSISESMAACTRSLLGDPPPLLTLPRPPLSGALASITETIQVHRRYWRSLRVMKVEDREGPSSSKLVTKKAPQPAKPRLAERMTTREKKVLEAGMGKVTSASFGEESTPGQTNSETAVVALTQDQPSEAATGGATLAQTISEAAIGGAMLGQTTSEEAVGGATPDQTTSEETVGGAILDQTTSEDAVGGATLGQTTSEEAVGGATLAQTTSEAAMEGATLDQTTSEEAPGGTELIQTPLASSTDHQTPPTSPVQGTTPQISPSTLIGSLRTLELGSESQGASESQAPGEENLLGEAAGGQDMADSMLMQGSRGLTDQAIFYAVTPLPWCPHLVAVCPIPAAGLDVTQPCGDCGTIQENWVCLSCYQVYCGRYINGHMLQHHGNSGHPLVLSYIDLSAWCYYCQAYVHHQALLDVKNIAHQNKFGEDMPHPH
Protocol: Tubulin acetylation is a PD marker for HDAC6 inhibition. The extent of tubulin acetylation represents the inhibitory effect on HDAC6.
Novel compounds were tested for their ability to inhibit HDAC6 using a cell-based deacetylation assay. Tubulin acetylation was detected by the anti-acetylated tubulin antibody (Sigma) and horse radish peroxidase (HRP) conjugated secondary antibody (KangChen Bio. Tech.). […] 20 μl of diluted compound solution was transferred to the cell culture plate and incubated for 17-18 h. After medium removal and fixation by formaldehyde (3.7% paraformaldehyde in TBS), the cells in the plates were treated with 180 μl of −20° C. MeOH and incubated for 5 min at rt. The cell lysis was incubated with 75 μl of primary anti-acetylated tubulin antibody and secondary HRP conjugated antibody solution (1:750 anti-acetylated tubulin, 1:750 HRP conjugated anti-mouse IgG in antibody dilution buffer not containing sodium azide) for 4 h at 4° C. By adding the HRP substrate, enhanced chemiluminescence (ECL) reagent (GE Healthcare) generated luminescence corresponding to the level of tubulin acetylation. So that 75 μl of ECL was added into the wells and the luminescence from each well was immediately quantified by the plate reader. Based on the luminescence reading, the IC50s against HDAC6 of the tested compounds were calculated by plotting the curve with XLfit4.0 software. Inhibition %=[signal(sample)−Mean(bottom)]*100/[Mean(top)−Mean(bottom)]

recombinant human HDAC8 = recombinant human HDAC8 (Homo sapiens (Human), UniProt Q9BY41); assay: HDAC8 inhibition: recombinant HDAC8 fluorometric assay; type: biochemical; details: recombinant human HDAC8, substrate Ac-Arg-His-Lys-Lys(ε-acetyl)-AMC
Sequence of recombinant human HDAC8 (Q9BY41 whole entry): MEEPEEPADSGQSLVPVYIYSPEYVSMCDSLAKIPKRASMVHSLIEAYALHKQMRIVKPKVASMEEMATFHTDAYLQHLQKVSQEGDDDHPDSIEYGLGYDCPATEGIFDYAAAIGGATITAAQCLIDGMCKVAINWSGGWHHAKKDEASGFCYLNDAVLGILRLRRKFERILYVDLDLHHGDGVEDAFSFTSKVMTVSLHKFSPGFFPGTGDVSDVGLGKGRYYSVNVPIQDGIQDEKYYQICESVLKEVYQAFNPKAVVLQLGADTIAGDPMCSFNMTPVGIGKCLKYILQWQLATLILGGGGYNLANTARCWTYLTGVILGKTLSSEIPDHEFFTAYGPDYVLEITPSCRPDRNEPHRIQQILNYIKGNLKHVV
Protocol: A competitive inhibitory assay of HDAC8 was carried out by using recombinant HDAC8 and a commercial substrate Ac-Arg-His-Lys-Lys(ε-acetyl)-AMC.
Compounds were tested for their ability to inhibit histone deacetylase 8 using an in vitro deacetylation assay. The enzyme source for this assay was recombinant human HDAC8 protein expressed and purified from insect cells. […] The substrate consisted of a commercial product Ac-Arg-His-Lys-Lys(ε-acetyl)-AMC (substrate is available from Cayman Chemical). […] In a detailed procedure, 8 μl of HDAC8 enzyme solution (0.125 μg/μl) was transferred to assay plates (CORNING 3676). 1 μl of half-log diluted compounds were added into wells and incubated for 15 min at rt. After that, 8 μl of substrate solution was transferred to the wells and incubated for 30 min at rt. After deacetylation of the substrate by incubation with HDAC8 enzyme, subsequent exposure to a developing reagent produced a fluorophore that was directly proportional to the level of deacetylation. So 4 μl of developer regent (Cayman 10006394) was added into the wells in the assay plates and incubated for 15 min. The fluorescence signal was measured by a FlexStation3 plate reader (excitation wave length 340-360 nm; emission wave length 440-465 nm). The IC50 was calculated after normalization and curve fitting using XLfit4.0 software. Inhibition %=[Mean(top)−signal(sample)]*100/[Mean(top)−Mean(bottom)].

## CN1CC(NS(=O)(=O)c2ccc(Cl)cc2)Cc2cc(C(=O)NO)ccc21 (stereo not drawn) [Example 65, 3-(4-Chloro-benzenesulfonylamino)-1-methyl-1,2,3,4-tetrahydro-quinoline-6-carboxylic acid hydroxyamide]
[1]
  p21 RP3: 0.41
  p21 RP10: 0.26
  p21 RP30: 0.46
HDAC6
  pEC50: 4.98
Recombinant human HDAC8
  pIC50: 6.12

## O=C(NO)c1ccc2c(c1)CC(Nc1nccc(-c3cccnc3Cl)n1)CC2 (stereo not drawn) [Example 30, 7-[4-(2-Chloro-pyridin-3-yl)-pyrimidin-2-ylamino]-5,6,7,8-tetrahydro-naphthalene-2-carboxylic acid hydroxyamide]
[1]
  p21 RP3: 0.40
  p21 RP10: 0.10
  p21 RP30: −0.03
HDAC6
  pEC50: 6.22
Recombinant human HDAC8
  pIC50: 6.29

## O=C(NO)c1ccc2c(c1)CC(Nc1nccc(-c3cnc4ccccc4c3)n1)CC2 (stereo not drawn) [Example 34, 7-(4-Quinolin-3-yl-pyrimidin-2-ylamino)-5,6,7,8-tetrahydro-naphthalene-2-carboxylic acid hydroxyamide]
[1]
  p21 RP3: 0.42
  p21 RP10: 0.31
  p21 RP30: −0.02
HDAC6
  pEC50: 5.10
Recombinant human HDAC8
  pIC50: 6.32

## O=C(NO)c1cc2c(cc1F)CCC(NS(=O)(=O)c1cccc(Cl)c1)C2 (stereo not drawn) [Example 52, 7-(3-Chloro-benzenesulfonylamino)-3-fluoro-5,6,7,8-tetrahydro-naphthalene-2-carboxylic acid hydroxyamide]
[1]
  p21 RP3: 0.12
  p21 RP10: 0.01
  p21 RP30: −0.02
HDAC6
  pEC50: 5.43
Recombinant human HDAC8
  pIC50: 6.03

## O=C(NO)c1ccc2c(c1)CC(NS(=O)(=O)c1ccc(Cl)cc1Cl)CC2 (stereo not drawn) [Example 46, 7-(2,4-Dichloro-benzenesulfonylamino)-5,6,7,8-tetrahydro-naphthalene-2-carboxylic acid hydroxyamide]
[1]
  p21 RP3: 0.49
  p21 RP10: 0.15
  p21 RP30: 0.01
HDAC6
  pEC50: 5.31
Recombinant human HDAC8
  pIC50: 6.72

## O=C(NO)c1ccc2c(c1)CC(NS(=O)(=O)c1ccc(F)cc1F)CC2 (stereo not drawn) [Example 44, 7-(2,4-Difluoro-benzenesulfonylamino)-5,6,7,8-tetrahydro-naphthalene-2-carboxylic acid hydroxyamide]
[1]
  p21 RP3: 0.63
  p21 RP10: 0.32
  p21 RP30: 0.56
HDAC6
  pEC50: 5.41
Recombinant human HDAC8
  pIC50: 6.68

## COc1cncc(-c2ccnc(NC3CCc4ccc(C(=O)NO)cc4C3)n2)c1 (stereo not drawn) [Example 27, 7-[4-(5-Methoxy-pyridin-3-yl)-pyrimidin-2-ylamino]-5,6,7,8-tetrahydro-naphthalene-2-carboxylic acid hydroxyamide]
[1]
  p21 RP3: 0.35
  p21 RP10: 0.05
  p21 RP30: −0.09
HDAC6
  pEC50: 5.72
Recombinant human HDAC8
  pIC50: 6.28

## COc1ccc(-c2ccnc(NC3CCc4ccc(C(=O)NO)cc4C3)n2)cn1 (stereo not drawn) [Example 28, 7-[4-(6-Methoxy-pyridin-3-yl)-pyrimidin-2-ylamino]-5,6,7,8-tetrahydro-naphthalene-2-carboxylic acid hydroxyamide]
[1]
  p21 RP3: −0.20
  p21 RP10: −0.19
  p21 RP30: −0.24
HDAC6
  pEC50: 5.26
Recombinant human HDAC8
  pIC50: 6.00

## COc1cccc(C(=O)NC2CNc3ccc(C(=O)NO)cc3C2)c1 (stereo not drawn) [Example 54, 3-(3-Methoxy-benzoylamino)-1,2,3,4-tetrahydro-quinoline-6-carboxylic acid hydroxyamide]
[1]
  p21 RP3: 0.03
  p21 RP10: 0.03
  p21 RP30: 0.07
HDAC6
  pEC50: 5.47
Recombinant human HDAC8
  pIC50: 5.55

## O=C(NO)c1ccc2c(c1)CC(Nc1ncc3cc(F)ccc3n1)CC2 (stereo not drawn) [Example 35, 7-(6-Fluoro-quinazolin-2-ylamino)-5,6,7,8-tetrahydro-naphthalene-2-carboxylic acid hydroxyamide]
[1]
  p21 RP3: −0.86
  p21 RP10: −0.30
HDAC6
  pEC50: 6.03
Recombinant human HDAC8
  pIC50: 5.75

## O=C(NO)c1ccc2c(c1)CC(Nc1ccc(Br)cc1)CC2 (stereo not drawn) [Example 2, 7-(4-bromo-phenylamino)-5,6,7,8-tetrahydro-naphthalene-2-carboxylic acid hydroxyamide]
[1]
  p21 RP3: 0.26
  p21 RP10: −0.06
  p21 RP30: −0.04
HDAC6
  pEC50: 5.26
Recombinant human HDAC8
  pIC50: 6.17

## Cc1ccc(-c2ccnc(NC3CCc4ccc(C(=O)NO)cc4C3)n2)cn1 (stereo not drawn) [Example 25, 7-[4-(6-Methyl-pyridin-3-yl)-pyrimidin-2-ylamino]-5,6,7,8-tetrahydro-naphthalene-2-carboxylic acid hydroxyamide]
[1]
  p21 RP3: 0.30
  p21 RP10: 0.13
  p21 RP30: 0.08
HDAC6
  pEC50: 5.21
Recombinant human HDAC8
  pIC50: 6.32

## Cc1cc(Oc2ccccc2)nc(NC2CCc3ccc(C(=O)NO)cc3C2)n1 (stereo not drawn) [Example 32, 7-(4-Methyl-6-phenoxy-pyrimidin-2-ylamino)-5,6,7,8-tetrahydro-naphthalene-2-carboxylic acid hydroxyamide]
[1]
  p21 RP3: 0.26
  p21 RP10: 0.15
  p21 RP30: −0.04
HDAC6
  pEC50: 5.28
Recombinant human HDAC8
  pIC50: 5.82

## O=C(NO)c1cc2c(cc1F)CCC(Nc1nccc(-c3cccnc3)n1)C2 (stereo not drawn) [Example 50, 3-Fluoro-7-(4-pyridin-3-yl-pyrimidin-2-ylamino)-5,6,7,8-tetrahydro-naphthalene-2-carboxylic acid hydroxyamide]
[1]
  p21 RP3: 0.26
  p21 RP10: 0.03
  p21 RP30: −0.01
HDAC6
  pEC50: 5.19
Recombinant human HDAC8
  pIC50: 5.82

## O=C(NO)c1cc2c(cc1F)CCC(NS(=O)(=O)c1ccc(Cl)cc1)C2 (stereo not drawn) [Example 51, 7-(4-Chloro-benzenesulfonylamino)-3-fluoro-5,6,7,8-tetrahydro-naphthalene-2-carboxylic acid hydroxyamide]
[1]
  p21 RP3: 0.20
  p21 RP10: 0.03
  p21 RP30: 0.00
HDAC6
  pEC50: 5.28
Recombinant human HDAC8
  pIC50: 5.89

## CN(C)c1cccc(-c2ccnc(NC3CCc4ccc(C(=O)NO)cc4C3)n2)c1 (stereo not drawn) [Example 16, 7-[4-(3-Dimethylamino-phenyl)-pyrimidin-2-ylamino]-5,6,7,8-tetrahydro-naphthalene-2-carboxylic acid hydroxyamid]
[1]
  p21 RP3: 1.50
  p21 RP10: 0.40
  p21 RP30: 0.30
HDAC6
  pEC50: 5.46
Recombinant human HDAC8
  pIC50: 6.10

## O=C(NO)c1ccc2c(c1)CC(Nc1nccc(-c3ccc(Cl)nc3)n1)CC2 (stereo not drawn) [Example 29, 7-[4-(6-Chloro-pyridin-3-yl)-pyrimidin-2-ylamino]-5,6,7,8-tetrahydro-naphthalene-2-carboxylic acid hydroxyamide]
[1]
  p21 RP3: 0.39
  p21 RP10: 0.07
  p21 RP30: −0.02
HDAC6
  pEC50: 5.84
Recombinant human HDAC8
  pIC50: 6.05
